Test results as given in US9611278B2 (Merck Sharp & Dohme Corp., priority 2013, dated 2017).

Target: T1, sGC α1/β1 heterodimer stably expressed in CHO-K1 cells (CHO-K1/sGC) (Homo sapiens, UniProt Q02108+Q02153)
T1 construct: expressed in transfected cells
T1 sequence (Q02108 1-690): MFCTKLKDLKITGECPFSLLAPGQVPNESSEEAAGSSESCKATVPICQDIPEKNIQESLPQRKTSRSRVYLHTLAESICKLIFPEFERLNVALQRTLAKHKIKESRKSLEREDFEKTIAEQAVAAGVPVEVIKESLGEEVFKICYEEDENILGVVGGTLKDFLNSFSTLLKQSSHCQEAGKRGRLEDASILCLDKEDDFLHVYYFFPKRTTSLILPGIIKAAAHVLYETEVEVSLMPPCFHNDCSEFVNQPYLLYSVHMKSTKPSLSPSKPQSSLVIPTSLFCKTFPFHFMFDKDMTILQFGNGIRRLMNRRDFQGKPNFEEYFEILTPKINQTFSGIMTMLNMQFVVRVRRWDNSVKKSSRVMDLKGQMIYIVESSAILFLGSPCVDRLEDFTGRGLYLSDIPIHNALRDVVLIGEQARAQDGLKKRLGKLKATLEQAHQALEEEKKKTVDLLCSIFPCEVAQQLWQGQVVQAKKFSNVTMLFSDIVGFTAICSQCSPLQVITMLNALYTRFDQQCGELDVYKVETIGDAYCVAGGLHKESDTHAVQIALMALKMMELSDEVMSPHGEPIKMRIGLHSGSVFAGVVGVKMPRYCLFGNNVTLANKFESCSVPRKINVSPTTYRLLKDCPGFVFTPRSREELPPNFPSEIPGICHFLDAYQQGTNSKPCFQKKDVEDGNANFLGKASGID
T1 sequence (Q02153 1-619): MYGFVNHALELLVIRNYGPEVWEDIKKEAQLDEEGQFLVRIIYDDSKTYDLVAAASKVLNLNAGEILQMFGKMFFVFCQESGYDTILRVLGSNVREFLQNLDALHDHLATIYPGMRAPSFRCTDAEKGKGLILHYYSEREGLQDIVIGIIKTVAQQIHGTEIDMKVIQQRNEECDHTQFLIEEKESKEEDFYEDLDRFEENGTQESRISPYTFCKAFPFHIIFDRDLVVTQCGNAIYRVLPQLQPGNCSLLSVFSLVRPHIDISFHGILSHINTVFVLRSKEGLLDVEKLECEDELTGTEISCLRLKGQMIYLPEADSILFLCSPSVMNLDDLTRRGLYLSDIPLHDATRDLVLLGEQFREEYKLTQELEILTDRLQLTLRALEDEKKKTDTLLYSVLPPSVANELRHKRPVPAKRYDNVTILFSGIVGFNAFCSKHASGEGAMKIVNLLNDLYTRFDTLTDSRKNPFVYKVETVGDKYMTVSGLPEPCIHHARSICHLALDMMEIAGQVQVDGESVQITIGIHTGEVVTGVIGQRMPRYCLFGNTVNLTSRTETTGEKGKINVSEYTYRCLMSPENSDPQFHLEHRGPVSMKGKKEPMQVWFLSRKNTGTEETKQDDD
Experiment: Cell-based sGC Functional Assay (CASA Assay)
Details: for Emax: CHO-K1, activation as percentage of maximum cGMP production of Compound A (set to 100%), read-out: % Act.; for EC50: inflection point of cGMP generation in CHO-K1/sGC cells, 4P fit, 1 hr at 37° C., read-out: IP
Text: sGC is a heme-containing enzyme that converts GTP to secondary messenger cGMP. Increases in cGMP levels affect several physiological processes including vasorelaxation through multiple downstream pathways. […] Heme-dependent activators (HDAs) preferentially activate sGC containing a ferrous heme group. To determine the effect of sGC activators on enzyme activity, the CASA assay was developed to monitor the generation of cGMP in a cell line that stably expresses the heterodimeric sGC protein.
A CHO-K1 cell line stably expressing the sGC α1/β1 heterodimer was generated using a standard transfection protocol. CHO-K1 cells were transfected with plasmids pIREShyghsGCα1 and pIRESneo-hsGCβ1 simultaneously using FUGENE reagent. Clones that stably express both subunits were selected with hygromycin and neomycin for ˜2 weeks. Clone #7 was chosen for the assay and was designated CHO-K1/sGC. CHO-K1/sGC cells were maintained in F-K12 medium containing 10% heat-inactivated Fetal Bovine Serum (FBS), 100 μg/mL penicillin/streptomycin, 0.5 mg/mL hygromycin and 0.25 mg/mL G418. The cells were then cryopreserved in LN2. On the day of the assay, cells thawed and resuspended in EBSS Assay Buffer (EAB, Sigma, E3024) supplemented with 5 mM MgCl2, 10 mM HEPES (4-(2-hydroxyethyl)piperazine-1-ethanesulfonic acid) and 0.05% BSA (bovine serum albumin) and cell density was then adjusted to 4×10^5/mL with EAB. IBMX (3-isobutyl-1-methylxanthin, 0.5 mM) was added to inhibit degradation of cGMP. Compounds were diluted from DMSO stock solutions and added to the assay at a final DMSO concentration of 2.5%. Cells were incubated with compounds in the presence and absence of 1 μM of Diethylenetriamine/nitric oxide adduct (DETA-NO; Sigma, 17018) for 1 hr at 37° C. At the end of the incubation period, the reaction was terminated and the cells were lysed with the detection reagents from Cisbio Kits. The level of intracellular cGMP was determined using an HTRF-based assay kit (CisBio, 62GM2PEC), which detects the displacement of a fluorescence labeled cGMP from its specific antibody. The cGMP produced by test compounds was directly compared to the maximum cGMP production (this value was set to equal 100% activation.) of the published sGC-HDA Compound A:
(Example 1 in WO 2010/065275, published Jun. 10, 2010). The test compounds' activity were then expressed as a percentage of Compound A, the standard in every experiment. This percent activation was calculated either in the presence or absence of DETA-NO which was then plotted. IP and maximum fold induction was derived using ADA analysis software for 4P fit.

SMILES	Emax [%]	EC50 [nM]
[2H]C([2H])([2H])n1ncc2c(-c3nc(N)c4c(n3)NC(=O)C4(C)c3nc(C4CC4)no3)nc(CCC(F)(F)C(F)(F)F)nc21 (stereo not drawn) [Example 8, 4-Amino-5-(3-cyclopropyl-1,2,4-oxadiazol-5-yl)-5-methyl-2-(1-(methyl-d3)-6-(3,3,4,4,4-pentafluorobutyl)-1H-pyrazolo[3,4-d]pyrimidin-4-yl)-5,7-dihydro-6H-pyrrolo[2,3-d]pyrimidin-6-one]	126	49
[2H]C([2H])([2H])n1ncc2c(-c3nc(N)c4c(n3)NC(=O)C4(C)c3ccc(C(F)(F)F)nc3)nc(CCC(F)(F)C(F)(F)F)nc21 (stereo not drawn) [Example 10, 4-Amino-5-methyl-2-(1-(methyl-d3)-6-(3,3,4,4,4-pentafluorobutyl)-1H-pyrazolo[3,4-d]pyrimidin-4-yl)-5-(6-(trifluoromethyl)pyridin-3-yl)-5,7-dihydro-6H-pyrrolo[2,3-d]pyrimidin-6-one]	114	665
[2H]C([2H])([2H])n1ncc2c(-c3nc(N)c4c(n3)NC(=O)C4(C)c3ccc(OC)cn3)nc(CCC(F)(F)C(F)(F)F)nc21 (stereo not drawn) [Example 12, 4-Amino-5-(5-methoxypyridin-2-yl)-5-methyl-2-(1-(methyl-d3)-6-(3,3,4,4,4-pentafluorobutyl)-1H-pyrazolo[3,4-d]pyrimidin-4-yl)-5,7-dihydro-6H-pyrrolo[2,3-d]pyrimidin-6-one]	104	
[2H]C([2H])([2H])n1ncc2c(-c3nc(N)c4c(n3)NC(=O)C4(C)c3ccc4cccnc4c3)nc(CCC(F)(F)C(F)(F)F)nc21 (stereo not drawn) [Example 13, 4-Amino-5-methyl-2-(1-(methyl-d3)-6-(3,3,4,4,4-pentafluorobutyl)-1H-pyrazolo[3,4-d]pyrimidin-4-yl)-5-(quinolin-7-yl)-5,7-dihydro-6H-pyrrolo[2,3-d]pyrimidin-6-one]	89	29
[2H]C([2H])([2H])n1ncc2c(-c3nc(N)c4c(n3)NC(=O)C4(C)c3cncc(OC)c3)nc(CCC(F)(F)C(F)(F)F)nc21 (stereo not drawn) [Example 14, 4-Amino-5-(5-methoxypyridin-3-yl)-5-methyl-2-(1-(methyl-d3)-6-(3,3,4,4,4-pentafluorobutyl)-1H-pyrazolo[3,4-d]pyrimidin-4-yl)-5,7-dihydro-6H-pyrrolo[2,3-d]pyrimidin-6-one]	131	709
[2H]C([2H])([2H])n1ncc2c(-c3nc(N)c4c(n3)NC(=O)C4(C)c3ccnc(C(=O)OC)c3)nc(CCC(F)(F)C(F)(F)F)nc21 (stereo not drawn) [Example 18, Methyl 4-(4-amino-5-methyl-2-(1-(methyl-d3)-6-(3,3,4,4,4-pentafluorobutyl)-1H-pyrazolo[3,4-d]pyrimidin-4-yl)-6-oxo-6,7-dihydro-5H-pyrrolo[2,3-d]pyrimidin-5-yl)picolinate]	88	411
Cc1nc(C2(C)C(=O)Nc3nc(-c4nc(CCC(F)(F)C(F)(F)F)nc5c4cnn5C)nc(N)c32)no1 (stereo not drawn) [Example 20, 4-Amino-5-methyl-5-(5-methyl-1,2,4-oxadiazol-3-yl)-2-(1-methyl-6-(3,3,4,4,4-pentafluorobutyl)-1H-pyrazolo[3,4-d]pyrimidin-4-yl)-5,7-dihydro-6H-pyrrolo[2,3-d]pyrimidin-6-one]	132	103
Cn1ncc2c(-c3nc(N)c4c(n3)NC(=O)C4(C)c3ccccn3)nc(CCC(F)(F)C(F)(F)F)nc21 (stereo not drawn) [Example 22, 4-Amino-5-methyl-2-(1-methyl-6-(3,3,4,4,4-pentafluorobutyl)-1H-pyrazolo[3,4-d]pyrimidin-4-yl)-5-(pyridin-2-yl)-5,7-dihydro-6H-pyrrolo[2,3-d]pyrimidin-6-one]	103	71

Continued by falling EC50, values first:

Emax [%]	EC50 [nM]	SMILES
126	626	[2H]C([2H])([2H])n1ncc2c(-c3nc(N)c4c(n3)NC(=O)C4(C)c3coc(C)n3)nc(CCC(F)(F)C(F)(F)F)nc21 (stereo not drawn) [Example 11, 4-Amino-5-methyl-2-(1-(methyl-d3)-6-(3,3,4,4,4-pentafluorobutyl)-1H-pyrazolo[3,4-d]pyrimidin-4-yl)-5-(2-methyloxazol-4-yl)-5,7-dihydro-6H-pyrrolo[2,3-d]pyrimidin-6-one]
100	475	Cn1cc(C2(C3CC3)C(=O)Nc3nc(-c4nc(CCC(F)(F)C(F)(F)F)nc5c4cnn5C)nc(N)c32)cn1 (stereo not drawn) [Example 15, 4-Amino-5-cyclopropyl-5-(1-methyl-1H-pyrazol-4-yl)-2-(1-methyl-6-(3,3,4,4,4-pentafluorobutyl)-1H-pyrazolo[3,4-d]pyrimidin-4-yl)-5,7-dihydro-6H-pyrrolo[2,3-d]pyrimidin-6-one]
107	160	Cn1ncc2c(-c3nc(N)c4c(n3)NC(=O)C4(c3cnoc3)C3CC3)nc(CCC(F)(F)C(F)(F)F)nc21 (stereo not drawn) [Example 16, 4-Amino-5-cyclopropyl-5-(isoxazol-4-yl)-2-(1-methyl-6-(3,3,4,4,4-pentafluorobutyl)-1H-pyrazolo[3,4-d]pyrimidin-4-yl)-5,7-dihydro-6H-pyrrolo[2,3-d]pyrimidin-6-one]
111	138	Cn1ncc2c(-c3nc(N)c4c(n3)NC(=O)C4(C)c3ccccn3)nc(CCCC(F)(F)F)nc21 (stereo not drawn) [Example 21, 4-Amino-5-methyl-2-(1-methyl-6-(4,4,4-trifluorobutyl)-1H-pyrazolo[3,4-d]pyrimidin-4-yl)-5-(pyridin-2-yl)-5,7-dihydro-6H-pyrrolo[2,3-d]pyrimidin-6-one]
116	122	CCC1(c2ccc(OC)nc2)C(=O)Nc2nc(-c3nc(CCC(F)(F)C(F)(F)F)nc4c3cnn4C)nc(N)c21 (stereo not drawn) [Example 17, 4-Amino-5-ethyl-5-(6-methoxypyridin-3-yl)-2-(1-methyl-6-(3,3,4,4,4-pentafluorobutyl)-1H-pyrazolo[3,4-d]pyrimidin-4-yl)-5,7-dihydro-6H-pyrrolo[2,3-d]pyrimidin-6-one]
121	116	[2H]C([2H])([2H])n1ncc2c(-c3nc(N)c4c(n3)NC(=O)C4(C)c3ncccn3)nc(CCC(F)(F)C(F)(F)F)nc21 (stereo not drawn) [Example 9, 4-Amino-5-methyl-2-(1-(methyl-d3)-6-(3,3,4,4,4-pentafluorobutyl)-1H-pyrazolo[3,4-d]pyrimidin-4-yl)-5-(pyrimidin-2-yl)-5,7-dihydro-6H-pyrrolo[2,3-d]pyrimidin-6-one]
